Measurements reported in ChEMBL document CHEMBL1130497, “Novel 7-hydroxycoumarin based fluorescent labels” (Bioorg Med Chem Lett, 1997).

Test: pKa value was determined
Type: physicochemical

| Compound | pKa |
| --- | --- |
| O=C(O)CCCCc1cc(=O)oc2cc(O)ccc12 | 7.8 |
| CCN(CC)Cc1c(O)ccc2c(CCCCC(=O)O)cc(=O)oc12 | 6.6 |
| O=C(O)CCCCc1cc(=O)oc2c(CN3CCCC3)c(O)ccc12 | 6.7 |
| O=C(O)CCCCc1cc(=O)oc2c(CN3CCCCC3)c(O)ccc12 | 6.6 |
